The text below walks through data of patent publication US20130116586A1, “USE OF DRONEDARONE OR A PHARMACEUTICALLY ACCEPTABLE SALT THEREOF FOR THE PREPARATION OF A DRUG FOR THE PREVENTION OF ATRIAL FIBRILLATION” (SANOFI, priority 2011, published 2013).

Series [1] concerns patients with permanent atrial fibrillation or flutter. Nature of the series: PALLAS study: dronedarone 400 mg bid vs placebo on top of standard therapy. It is filed as in vivo, human. The conditions noted are these: for unplanned cardiovascular hospitalizations and mortality, events recorded: 400 mg bid; for relative risk of cardiovascular hospitalizations and deaths vs placebo: Cox model. An excerpt: The PALLAS trial (Permanent Atrial fibriLLAtion outcome Study) using dronedarone on top of standard therapy was designed to evaluate the efficacy of dronedarone on major cardiovascular events in a patient population with permanent AF.
The primary efficacy objective of PALLAS was the reduction of: • 1) major cardiovascular events (stroke, systemic arterial embolism, myocardial infarction or cardiovascular death), or • 2) unplanned cardiovascular hospitalization or death from any cause.
Patients with permanent AF were at least 65 years of age with a 12-lead ECG recorded no more than 14 days prior to randomization showing AF or atrial flutter, documentation in the form of ECG rhythm strips or medical reports indicating AF or atrial flutter for at least 6 months prior to randomization without evidence of sinus rhythm in the intervening period. In addition, both the patient and physician must have reached a decision to allow AF to continue without further efforts to restore sinus rhythm.
Patients were randomized to dronedarone 400 mg bid or placebo.
• 1. NYHA class IV or recent unstable NYHA class III heart failure, where unstable refers to a requirement for intensification of therapy (e.g., increased diuretic, ACE/ARB, or inotropic dosage due to exacerbated symptoms within one month prior to randomization). • 2. Sustained daytime bradycardia <50 bpm without a permanent pacemaker • 3. QTc interval ≧500 ms, or 530 ms if there is ventricular paced rhythm • 4. Hypersensitivity to the active substance or to any of its excipients • 5. Need for co-administration of strong CYP3A4 inhibitors, such as ketoconazole, itraconazole, voriconazole, telithromycin, clarithromycin, nefazodone and ritonavir leading to increased systemic exposure to dronedarone • 6. Need for co-administration of medicinal products capable of inducing torsades de pointes ventricular tachycardia, such as phenothiazines, cisapride, bepridil, tricyclic antidepressants, terfenadine and certain oral macrolides, or Vaughan Williams class I and III antiarrhythmic agents) • 7. Severe hepatic impairment
Treatment was initiated using tablets containing either the placebo or an amount of dronedarone hydrochloride corresponding to 400 mg of dronedarone at a rate of one tablet twice a day with the morning and evening meals.
The anticipated duration of the treatment was variable according to the time at which each patient was included in the study, and could range between 3 months for the last patient included and 3 years for the first patient included.
The results obtained in this trial were analysed by the Kaplan Meier method for the figures, and the relative risk (RR) was estimated using Cox's proportional-effect regression model.
The relative risk (RR) is the ratio of the rates of occurrence of a hospitalization or of a death among the patients on dronedarone, relative to the patients on placebo.

Series [2] has as its system patients with permanent atrial fibrillation. The conditions noted are these: in vivo; cited from earlier work.
The test system of series [3] is patients with atrial fibrillation/atrial flutter. The conditions noted are these: whole ATHENA trial; cited from earlier work.
Series [4] has as its system patients hospitalized with symptomatic unstable heart failure and severe left ventricular systolic function. The conditions noted are these: trial terminated early; cited from earlier work.
The subject of series [5] is patients with atrial fibrillation. The conditions noted are these: in vivo; cited from earlier work.
In series [6] the test system is patients with atrial fibrillation/atrial flutter. In words: ATHENA trial, including post-hoc exploratory analysis of patients with AF on all follow-up ECGs. It is filed as in vivo, human. The conditions noted are these: for patients displaying AF on all ECGs recorded during follow-up: of 2301 patients assigned to dronedarone. How it is done: • AF/AFL atrial fibrillation or atrial flutter • ATHENA A placebo-controlled, double-blind, parallel arm Trial to assess the efficacy of dronedarone 400 mg bid for the prevention of cardiovascular Hospitalization or death from any cause in patiENts with Atrial fibrillation/atrial flutter • PALLAS Permanent Atrial fibriLLAtion Outcome Study Using Dronedarone on Top of Standard Therapy
For the sake of hypothesis generation, these patients can be considered as having permanent AF. In a post-hoc exploratory analysis of this cohort, the primary study endpoint (time to first CV hospitalization or all-cause death) occurred in 95 patients in the placebo group and 46 in the dronedarone group (HR 0.742, 95% Cl 0.522-1.056; p=0.096). Considering first unplanned CV hospitalizations, 85 patients in the placebo group and 37 on dronedarone reached this secondary study endpoint (HR 0.67, 95% Cl 0.46-0.99; p=0.04). There was a similar trend toward reduction in major cardiovascular events (stroke, ACS, cardiovascular death). These observations from ATHENA supported testing the efficacy of dronedarone for prevention of major cardiovascular events in patients with permanent AF.

Molecules are shown by their SMILES. Where a name gives a salt, the structure may show the parent alone.

Turning to `CCCCc1oc2ccc(NS(C)(=O)=O)cc2c1C(=O)c1ccc(OCCCN(CCCC)CCCC)cc1` [dronedarone hydrochloride], the “unplanned cardiovascular hospitalizations and mortality, events recorded” value in series [1] (preliminary results, placebo group 72 events) is listed as 114 events; in series [1] (results (III.1'), placebo group 67 events) it was 127 events. In addition, the “relative risk of cardiovascular deaths vs placebo” value in series [1] (preliminary results, 95% CI 0.98-6.53, p=0.0462) came to 2.53; in series [1] (results (III.2'), 95% CI 1.00-4.49, p=0.046), 2.11. Besides, in series [1] (preliminary results, 95% CI 1.15-2.12, p=0.0039), the “relative risk of cardiovascular hospitalizations vs placebo” value came to 1.56. Also, the “relative risk of cardiovascular hospitalizations for heart failure vs placebo” value in series [1] (preliminary results, 95% CI 1.22-3.99, p=0.0070) turned out to be 2.21; in series [1] (results (III.4'), 95% CI 1.10-2.99, p=0.02), 1.81. Further, the “relative risk of heart failure related episodes vs placebo” value in series [1] (preliminary results, 95% CI 1.66-3.74, p<0.0001) was found to be 2.49. The “relative risk of cardiovascular hospitalizations and deaths vs placebo” value stood at 1.62 in series [1] (preliminary results, 95% CI 1.20, 2.17, p=0.001) and 1.95 in series [1] (results (III.1'), p<0.001). The “cardiovascular mortality, events recorded” value in series [1] (preliminary results, placebo group 6 events) is on record as 15 events; in series [1] (results (III.2'), placebo group 10 events), 21 events. The “cardiovascular hospitalizations for heart failure, events recorded” value in series [1] (preliminary results, placebo group 16 events) worked out at 35 events; in series [1] (results (III.4'), placebo group 24 events), 43 events. Also, the “heart failure, events recorded” value in series [1] (preliminary results, placebo group 33 events) turned out to be 80 events. For the same compound, the “unplanned cardiovascular hospitalizations, events recorded” value in series [1] (preliminary results, placebo group 68 events) is on record as 104 events. Besides, the “relative risk of cardiovascular hospitalizations and death vs placebo” value turned out to be 1.58 in series [1] (preliminary results, subgroup with NYHA class III heart failure, 95% CI 1.02, 2.44, p=0.041); 1.66 in series [1] (preliminary results, subgroup with left ventricular ejection fraction (LVEF)<40%, 95% CI 1.20, 2.30, p=0.002); 1.46 in series [1] (preliminary results, subgroup with symptomatic heart failure, 95% CI 1.01, 2.09, p=0.043). In addition, the “relative risk of unplanned hospitalizations for cardiovascular causes vs placebo” value in series [1] (results (III.3'), 95% CI 1.44-2.70, p<0.001) stood at 1.97. Also, the “unplanned hospitalizations for cardiovascular causes, events recorded” value in series [1] (results (III.3'), placebo group 59 events) is given as 113 events. The “relative risk of a heart failure episode or hospitalizations for heart failure vs placebo” value in series [1] (results (III.9), 95% CI 1.57-2.98, p<0.001) is 2.16. Moreover, the “heart failure episode or hospitalizations for heart failure, events recorded” value in series [1] (results (III.9), placebo group 55 events) turned out to be 115 events.

As to `CCCCc1oc2ccc(NS(C)(=O)=O)cc2c1C(=O)c1ccc(OCCCN(CCCC)CCCC)cc1` [dronedarone, 2-n-Butyl-3-[4-(3-di-n-butylaminopropoxy)benzoyl]-5-methylsulphonamidobenzofuran], in series [2], the rate control result was “has rate-controlling properties”. Besides, the “co-primary outcomes, cardiovascular hospitalizations and heart failure events in the dronedarone group” value in series [1] (preliminary review of the unblinded data) was “highly significant excess of events”. Further, the “major clinical outcomes including cardiovascular hospitalizations or cardiovascular mortality, and stroke” value in series [3] is “reduced major clinical outcomes”. Moreover, the mortality vs placebo result in series [4] is “increased mortality”. Moreover, the rhythm-controlling efficacy result in series [5] is “has been demonstrated”. Further, the “patients displaying AF on all ECGs recorded during follow-up” value in series [6] (placebo 12.7%) came to 7.7%; in series [6] (placebo 296 of 2,327), 178 patients. Besides, the “HR for first unplanned CV hospitalizations vs placebo” value in series [6] (post-hoc cohort with AF on all ECGs, 95% CI 0.46-0.99, p=0.04) turned out to be 0.67. In addition, the “HR for primary study endpoint (first CV hospitalization or all-cause death) vs placebo” value in series [6] (post-hoc cohort with AF on all ECGs, 95% CI 0.522-1.056, p=0.096) turned out to be 0.742. Further, in series [6] (post-hoc cohort with AF on all ECGs, placebo 85), the “first unplanned CV hospitalizations, patients reaching endpoint” value is given as 37 patients. Besides, the “primary study endpoint (time to first CV hospitalization or all-cause death), patients with event” value in series [6] (post-hoc cohort with AF on all ECGs, placebo 95) was 46 patients.
